Activity calls are given as the source filed them. The calls are words filed in the database; no cut-off is given here.
Columns and labels:
[1] = test system: MT3; experiment: Potentiation of doxorubicin-induced cytotoxicity in adriablastin-resistant human MT3 cells expressing p-glycoprotein xenografted in NMRI nude mouse at 5 mg/kg, ip administered on day 12, 13, 19, 20 prior to doxorubicin challenge of 6 mg/kg, iv on day 13 and 20; assay type: functional, organism-based
[2] = test system: Mus musculus; experiment: Toxicity in NMRI nude mouse xenografted with adriablastin-resistant human MT3 cells expressing p-glycoprotein assessed as body weight loss at 5 mg/kg, ip administered on day 12, 13, 19, 20 prior to doxorubicin challenge of 6 mg/kg, iv on day 13 and 20; assay type: organism-based; settings: in vivo
[3] = test system: MT3; experiment: Antitumor activity against adriablastin-resistant human MT3 cells expressing p-glycoprotein xenografted in NMRI nude mouse at 6 mg/kg, iv administered on day 13 and 20; assay type: functional, organism-based; parameters: dose 6 mg/kg
[4] = test system: Mus musculus; experiment: Toxicity in nude mouse assessed as body weight change at 100.8 mg/kg, iv measured daily for 13 days; assay type: organism-based; parameters: dose 100.8 mg/kg, route intravenous; settings: in vivo, 312 h

CCOC/C=C/c1ccc(-c2nc(-c3ccc(N(C)C)cc3)c(-c3ccc(NC(=O)CCN)cc3)[nH]2)cc1
Activity [1]: Active
Activity [2]: -23%

COc1cccc2c1C(=O)c1c(O)c3c(c(O)c1C2=O)C[C@@](O)(C(=O)CO)C[C@@H]3O[C@H]1C[C@H](N)[C@H](O)[C@H](C)O1
Activity [3]: inactive

CCOC/C=C/c1ccc(-c2nc(-c3ccc(N(C)C)cc3)c(-c3ccc(NC(=O)CCNC(=O)OCc4ccc(NC(=O)[C@H](CCCCN)NC(=O)[C@H](Cc5ccccc5)NC(=O)CC[C@H](NC(=O)CCCCCN5C(=O)C=CC5=O)C(=O)N[C@@H](Cc5ccccc5)C(=O)N[C@@H](CCCCN)C(=O)Nc5ccc(COC(=O)N[C@H]6C[C@H](O[C@H]7C[C@@](O)(C(=O)CO)Cc8c(O)c9c(c(O)c87)C(=O)c7c(OC)cccc7C9=O)O[C@@H](C)[C@H]6O)cc5)cc4)cc3)[nH]2)cc1.O=C(O)C(F)(F)F.O=C(O)C(F)(F)F
Activity [4]: Non-toxic

— ChEMBL document CHEMBL1143362, “Development of dual-acting prodrugs for circumventing multidrug resistance” (Bioorg Med Chem Lett, 2009)
